In patent publication US20230149362A1, “NEW CAPSULE COMPOSITION FOR PERORAL ADMINISTRATION” (Vicore Pharma AB, priority 2020, published 2023):
In brackets after ≈: the same amount, converted by molar mass. Where two headings read alike, the source gives them in different places.

Tests used:
[1] = Solubility of free C21 in aqueous vehicles (saturated solutions, HPLC); format: physicochemical; conditions: for solubility at 48 h: thermodynamic from solid, read-out: Concentration (solubility)
From the text: Vehicles (with sources) were as follows: sodium chloride (Sigma), ethanol (99.5%, Kemetyl), polyethylene glycols (BASF), phosphate buffered saline (PBS) pH 7.4 (Sigma), buffer solution pH 2.00 (citric acid, sodium hydroxide, hydrogen chloride), buffer solution pH 4.00 (citric acid, sodium hydroxide), buffer solution pH 6.00 (citric acid, sodium hydroxide), buffer solution pH 8.00 (boric acid, sodium hydroxide, hydrogen chloride) and buffer solution pH 10.00 (boric acid, sodium hydroxide, hydrogen chloride) (all Merck), and purified water (Elga Option 4 water purifier).
Saturated solutions of free C21 (obtained from Syntagon AB, Södertälje, Sweden) were prepared in duplicates. The samples were kept magnetically stirred for 48 hours prior to analysis. For some samples, the added substance was dissolved and more was thereafter added to obtain saturated solutions.
After 48 hours, pH was measured and thereafter 1 mL of solution was withdrawn. Undissolved substance was removed by centrifugation (1500 rpm, 30 minutes). The supernatant was diluted 10 to 500 times with acetonitrile/H2O, 30:70.
C21 content was measured by HPLC.

[2] = Stability of aqueous solutions of C21 under four storage conditions (sensitivity to light); format: physicochemical; conditions: for Amount of Free C21, % of initial / Solution pH: 1 mg/mL in 0.9% NaCl
Procedure: The stability of free C21 in 0.9% NaCl pH 9.4 was investigated.
Solutions of 1 mg/mL of C21 were studied for four weeks under four different storage conditions. The solution was filtered through a 0.22 sterile syringe filter to minimize bacterial growth during the stability test. The samples were analysed by HPLC for purity.
The results are summarised in Table 3 below, in which the amount of C21 is given as a percentage of the initial amount of drug. Solution pHs were also measured and are shown within parenthesis in Table 3.
The stability of the sodium salt of C21 was also investigated under the same storage conditions.
At the time for analysis of the one week samples, it was noted that the heating cabinet for storage of samples at 40° C. was broken. In view of this, these samples were thereafter kept at room temperature for three days.

CCCCOC(=O)NS(=O)(=O)c1sc(CC(C)C)cc1-c1ccc(Cn2ccnc2)cc1 [free C21, N-butyloxycarbonyl-3-(4-imidazol-1-ylmethylphenyl)-5-iso-butylthiophene-2-sulfonamide]
solubility at 48 h ([1]; 0.9% NaCl, pH 7.3, saline or isotonic, vehicle 0.9% NaCl, pH 7.3): 120 µg/mL (≈ 252 µM)
solubility at 48 h ([1]; 0.9% NaCl, pH 8.3, saline or isotonic, vehicle 0.9% NaCl, pH 8.3 adjusted by NaOH, one sample): 1580 µg/mL (≈ 3320 µM)
solubility at 48 h ([1]; 0.9% NaCl, pH 9.7, saline or isotonic, vehicle 0.9% NaCl, pH 9.7 adjusted by NaOH): 27400 µg/mL (≈ 57600 µM)
solubility at 48 h ([1]; 0.9% NaCl/EtOH 95:5 v/v, pH 7.9, aqueous with cosolvent or surfactant or cyclodextrin, vehicle 0.9% NaCl/EtOH 95:5 v/v, pH 7.9, one sample): 570 µg/mL (≈ 1200 µM)
solubility at 48 h ([1]; PBS pH 7.4, pH 7.7, aqueous buffer, vehicle Buffer/PBS pH 7.4, measured pH 7.7): 240 µg/mL (≈ 505 µM)
solubility at 48 h ([1]; PEG/EtOH/H2O (40:10:50), pH 6.1, aqueous with cosolvent or surfactant or cyclodextrin, vehicle PEG/EtOH/H2O (40:10:50), pH 6.1): 830 µg/mL (≈ 1750 µM)
solubility at 48 h ([1]; PEG/H2O (25:75), pH 5.5, aqueous with cosolvent or surfactant or cyclodextrin, vehicle PEG/H2O (25:75), pH 5.5): 170 µg/mL (≈ 357 µM)
solubility at 48 h ([1]; PEG/H2O (50:50), pH 6.2, aqueous with cosolvent or surfactant or cyclodextrin, vehicle PEG/H2O (50:50), pH 6.2): 610 µg/mL (≈ 1280 µM)
solubility at 48 h ([1]; PG/EtOH/H2O (40:10:50), pH 6.3, aqueous with cosolvent or surfactant or cyclodextrin, vehicle PG/EtOH/H2O (40:10:50), pH 6.3): 790 µg/mL (≈ 1660 µM)
solubility at 48 h ([1]; PG/H2O (10:90), pH 7.5, aqueous with cosolvent or surfactant or cyclodextrin, vehicle PG/H2O (10:90), pH 7.5): 220 µg/mL (≈ 463 µM)
solubility at 48 h ([1]; PG/H2O (25:75), pH 6.9, aqueous with cosolvent or surfactant or cyclodextrin, vehicle PG/H2O (25:75), pH 6.9): 300 µg/mL (≈ 631 µM)
solubility at 48 h ([1]; boric acid buffer pH 8.0, pH 7.9, aqueous buffer, vehicle Buffer/Boric acid pH 8.0, measured pH 7.9): 500 µg/mL (≈ 1050 µM)
solubility at 48 h ([1]; boric acid buffer pH 10.0, pH 8.7, aqueous buffer, vehicle Buffer/Boric acid pH 10.0, measured pH 8.7): 19100 µg/mL (≈ 40200 µM)
solubility at 48 h ([1]; citric acid buffer pH 2.0, pH 2.3, aqueous buffer, vehicle Buffer/Citric acid pH 2.0, measured pH 2.3): 3950 µg/mL (≈ 8300 µM)
solubility at 48 h ([1]; citric acid buffer pH 4.0, pH 4, aqueous buffer, vehicle Buffer/Citric acid pH 4.0, measured pH 4.0): 80 µg/mL (≈ 168 µM)
solubility at 48 h ([1]; citric acid buffer pH 6.0, pH 6, aqueous buffer, vehicle Buffer/Citric acid pH 6.0, measured pH 6.0): 60 µg/mL (≈ 126 µM)
Concentration (solubility) ([1]; vehicle Buffer/Boric acid pH 10.0, measured pH 8.7): 19900 µg/mL
solubility at 48 h ([1]; water, pH 7.3, water, vehicle H2O, pH 7.3, stirred 48 hours): 150 µg/mL (≈ 315 µM)
Amount of Free C21, % of initial ([2]; 5° C., dark, 1 week): 101 % of initial
Solution pH ([2]; 5° C., dark, 1 week): (9.2)
Amount of Free C21, % of initial ([2]; 5° C., dark, 2 weeks): 107 % of initial
Solution pH ([2]; 5° C., dark, 2 weeks): (9.2)
Amount of Free C21, % of initial ([2]; 5° C., dark, 3 weeks): 108 % of initial
Solution pH ([2]; 5° C., dark, 3 weeks): (9.1)
Amount of Free C21, % of initial ([2]; 5° C., dark, 4 weeks): 108 % of initial
Solution pH ([2]; 5° C., dark, 4 weeks): (9.2)
Amount of Free C21, % of initial ([2]; 5° C., dark, Initial): 100 % of initial
Solution pH ([2]; 5° C., dark, Initial): (9.4)
Amount of Free C21, % of initial ([2]; 40° C., dark, 1 week): 101 % of initial
Solution pH ([2]; 40° C., dark, 1 week): (9.0)
Amount of Free C21, % of initial ([2]; 40° C., dark, 2 weeks): 111 % of initial
Solution pH ([2]; 40° C., dark, 2 weeks): (8.6)
Amount of Free C21, % of initial ([2]; 40° C., dark, 3 weeks): 106 % of initial
Solution pH ([2]; 40° C., dark, 3 weeks): (8.7)
Amount of Free C21, % of initial ([2]; 40° C., dark, 4 weeks): 107 % of initial
Solution pH ([2]; 40° C., dark, 4 weeks): (8.7)
Amount of Free C21, % of initial ([2]; 40° C., dark, Initial): 100 % of initial
Solution pH ([2]; 40° C., dark, Initial): (9.4)
Amount of Free C21, % of initial ([2]; RT, dark, 1 week): 97 % of initial
Solution pH ([2]; RT, dark, 1 week): (9.2)
Amount of Free C21, % of initial ([2]; RT, dark, 2 weeks): 109 % of initial
Solution pH ([2]; RT, dark, 2 weeks): (8.9)
Amount of Free C21, % of initial ([2]; RT, dark, 3 weeks): 105 % of initial
Solution pH ([2]; RT, dark, 3 weeks): (9.0)
Amount of Free C21, % of initial ([2]; RT, dark, 4 weeks): 106 % of initial
Solution pH ([2]; RT, dark, 4 weeks): (8.9)
Amount of Free C21, % of initial ([2]; RT, dark, Initial): 100 % of initial
Solution pH ([2]; RT, dark, Initial): (9.4)
Amount of Free C21, % of initial ([2]; RT, light, 1 week): 96 % of initial
Solution pH ([2]; RT, light, 1 week): (9.0)
Solution pH ([2]; RT, light, 2 weeks): (8.0)
Amount of Free C21, % of initial ([2]; RT, light, 2 weeks, precipitation, filtered): 44 % of initial
Amount of Free C21, % of initial ([2]; RT, light, 3 weeks): 96 % of initial
Solution pH ([2]; RT, light, 3 weeks): (8.5)
Solution pH ([2]; RT, light, 4 weeks): (7.7)
Amount of Free C21, % of initial ([2]; RT, light, 4 weeks, precipitation, filtered): 13 % of initial
Amount of Free C21, % of initial ([2]; RT, light, Initial): 100 % of initial
Solution pH ([2]; RT, light, Initial): (9.4)
total impurity peak area ([2]; samples stored at 5° C., RT/dark and 40° C.): around 2.5 area% of C21 peak area
chemical stability in aqueous solution ([2]; stored in dark at 5° C., RT and 40° C., four weeks): chemically stable
